The source of these data is paper PMC10967572, “Induction of Oxidative Stress and Ferroptosis in Triple-Negative Breast Cancer Cells by Niclosamide via Blockade of the Function and Expression of SLC38A5 and SLC7A11” (Antioxidants, 2024).

Assay [1] addresses T1, SLC7A11 (Homo sapiens, UniProt Q9UPY5).
T1 construct: endogenous in cells; host or cells: TNBC cell lines MB231, TXBR100 and MB453
T1 sequence (Q9UPY5 1-501): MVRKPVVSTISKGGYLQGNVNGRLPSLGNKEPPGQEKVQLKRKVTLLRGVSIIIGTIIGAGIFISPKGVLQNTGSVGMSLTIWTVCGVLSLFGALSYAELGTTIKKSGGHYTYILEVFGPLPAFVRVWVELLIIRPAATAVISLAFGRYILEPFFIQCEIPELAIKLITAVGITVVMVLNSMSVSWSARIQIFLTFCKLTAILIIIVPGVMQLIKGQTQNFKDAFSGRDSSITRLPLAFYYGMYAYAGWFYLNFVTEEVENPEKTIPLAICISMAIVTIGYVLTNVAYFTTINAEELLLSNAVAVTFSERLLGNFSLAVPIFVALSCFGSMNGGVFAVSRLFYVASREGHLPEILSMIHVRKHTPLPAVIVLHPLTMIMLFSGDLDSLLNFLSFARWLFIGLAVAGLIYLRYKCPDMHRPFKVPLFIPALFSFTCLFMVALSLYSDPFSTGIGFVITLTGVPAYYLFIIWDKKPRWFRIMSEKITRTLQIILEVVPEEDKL
T1 sequence (P08195 1-529 partner): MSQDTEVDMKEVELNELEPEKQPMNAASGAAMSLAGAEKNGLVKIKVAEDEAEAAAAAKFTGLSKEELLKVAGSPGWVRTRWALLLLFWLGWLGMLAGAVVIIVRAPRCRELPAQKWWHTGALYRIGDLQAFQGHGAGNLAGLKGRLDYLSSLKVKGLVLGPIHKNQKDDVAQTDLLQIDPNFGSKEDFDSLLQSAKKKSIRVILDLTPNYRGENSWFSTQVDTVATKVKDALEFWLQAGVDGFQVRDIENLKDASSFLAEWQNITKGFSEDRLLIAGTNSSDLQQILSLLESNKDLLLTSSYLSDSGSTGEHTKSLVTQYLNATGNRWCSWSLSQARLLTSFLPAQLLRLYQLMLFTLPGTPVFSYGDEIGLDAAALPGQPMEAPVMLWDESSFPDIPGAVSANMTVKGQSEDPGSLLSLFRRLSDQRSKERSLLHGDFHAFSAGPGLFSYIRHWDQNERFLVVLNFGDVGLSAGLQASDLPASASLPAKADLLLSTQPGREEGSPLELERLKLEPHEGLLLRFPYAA
Kind of assay: Direct inhibition of SLC7A11 transport activity ([3H]-glutamate uptake) in TNBC cells. The class given is cell-based. Here is the method: However, we routinely measure the activity of this transporter by cellular uptake of [^3H]-glutamate under Na^+-free conditions. Under these conditions, SLC7A11 mediates the cellular entry of [^3H]-glutamate in exchange for intracellular unlabeled glutamate. […] Non-carrier-mediated uptake (i.e, diffusional component) was determined by measuring the uptake of [^3H]-glutamate in the presence of excess unlabeled glutamate (5 mM). The transport activity of SLC7A11 was calculated by subtracting the diffusional component from total uptake.
Confluent cultures were used for uptake measurements.

Assay [2] concerns SLC38A5 and SLC7A11 mRNA. Kind of assay: qRT-PCR of SLC38A5 and SLC7A11 mRNA in TNBC cells. It counts as cell-based, human. As to conditions: niclosamide 2 μM, 24 h; MB231 and TXBR100. As for the experimental part:
Total RNA was extracted from cells using TRIzol Reagent (ThermoFisher Scientific, Waltham, MA, USA) and the RNA was reverse-transcribed using a high-capacity cDNA reverse transcription kit (ThermoFisher Scientific, Waltham, MA, USA) according to the manufacturer’s protocol. Quantitative RT-PCR was performed with Takara Taq Hot Start Version (TaKaRa Biotechnology, Shiga, Japan) or Power SYBR Green PCR master mix (Bio-Rad, Hercules, CA, USA). Primer sequences are shown in Supplemental Table S1. The relative mRNA expression was determined by the 2^−∆∆Ct method. Additionally, 18S was used as a housekeeping gene for normalization.
For orientation: Real-time PCR tracks product formation cycle by cycle.

In assay [3] the test system is MB231 and TXBR100 cells. The experiment in a line: Reactive oxygen species assay (DCFH-DA). It counts as cell-based, human. As to conditions: niclosamide 2.5 and/or 5 μM, 24 h. As for the experimental part: The probe of DCFH-DA was used to measure ROS. Briefly, cells were grown in a 96-well plate and then incubated with DCFH-DA (10 µM) at 37 °C for 30 min in dark. At the end of the incubation, cells were treated with different concentrations of niclosamide. Fluorescence intensity was monitored with a Microplate Reader (Glomax multi-detection system, Promega, Madison, WI, USA) at the excitation and emission wavelengths of 485 and 528 nm, respectively. Cellular fluorescence levels were expressed as % of control group (i.e., no treatment with niclosamide).

The test system of assay [4] is TNBC cells (MB231 and TXBR100). Kind of assay: MTT cell proliferation / viability assay. The class given is cell-based, human. As to conditions: niclosamide 2 μM, 72 h, MB231 and TXBR100. Here is the method: Cells were seeded in 96-well plates; after 24 h, niclosamide treatment was initiated. Cells were then cultured for 72 h with fresh medium containing freshly prepared niclosamide supplied every 24 h. Cells were washed with phosphate-buffered saline twice followed by MTT reagent (ATCC). Treatment and lysis of the cells were done as per the manufacturer’s instructions. Absorbance of the lysate was measured at 550 nm. Cell viability assay with various cell-death inhibitors was also performed as described above. Cells were treated with niclosamide (1 µM) along with cell death inhibitors (10 µM), except hydroxychloroquine (25 µM) for 48 h.

For assay [5], the system named is MB231 and TXBR100 cells. The experiment in a line: Matrigel cell invasion assay. The class given is cell-based. As to conditions: Homo sapiens, niclosamide 2.5 μM, 24 h, read-out: inhibition of cell invasion and migration. Here is the method: The effect of niclosamide on cell invasion was monitored using Corning® BioCoat™ Matrigel® Invasion assay kit according to the manufacturer’s instructions. Briefly, cells were serum-starved and their invasion to the other side of the membrane was analyzed in the presence or absence of niclosamide for 24 h. At the end of this treatment, non-invaded cells on the top side of the membrane were removed by scrubbing. Cells which invaded the other side of the membrane were fixed with 100% methanol, stained with crystal violet and counted under an inverted microscope; images were also captured.

Structures are written as SMILES.

One may read the IC50 as the concentration needed to halve the response being measured. Lower therefore signals greater potency in that assay.

On to `O=C(Nc1ccc([N+](=O)[O-])cc1Cl)c1cc(Cl)ccc1O` [niclosamide], for which, in assay [1] (niclosamide IC50 vs erastin literature value), the “affinity for SLC7A11 relative to experimental value known for erastin” value is reported as “at least three-to-four times greater”. The compound also came in with a concentration for half-maximal inhibition (IC50) in assay [1] (three TNBC cell lines (MB231, TXBR100, MB453), niclosamide present only during uptake, Na+-free buffer pH 7.5) of about 300 nM. In assay [2], the “SLC7A11 mRNA level” value was “decreased” and the “SLC38A5 mRNA level” value is recorded as “decreased”. Further, in assay [3], the ROS levels result is “increase”. Also, in assay [4], the “decrease in cell proliferation” value is reported as over 50%. Also, in assay [5], the inhibition at […] is over 75%.
